Source: US5800838A, “Composition that inhibits or destroys at least one unicellular living organism containing fluorine F- and Lithium li+” (priority 1987, dated 1998)
In brackets after ≈: the same amount, converted by molar mass. Read-outs that look alike come from different tables or passages of the source.

Assays:
Serratia = assay: Concentrations of cefotaxime inhibiting 50% of the strains; type: cell-based
Procedure: (§1) The activity of CEFOTAXIME was tested, alone and then in the presence of lithium fluoride, with respect to pathogenic strains other than Pseudomonas aeruginosa.
(§2) The following table expresses the concentrations (mg/l) of cefotaxime inhibiting 50% of the strains.

Proteus morganii = assay: as above; type: cell-based; conditions: Morganella morganii; alone; F20; read-out: 50% inhibitory concentration
Procedure: as §1, §2

Escherichia coli = assay: as above; type: cell-based
Procedure: as §1, §2

Klebsiella = assay: as above; type: cell-based
Procedure: as §1, §2

Enterobacter = assay: as above; type: cell-based
Procedure: as §1, §2

Pseudomonas aeruginosa = assay: MIC of antibiotics by microdilution in liquid medium on plates (Example 18); type: cell-based; conditions: Pseudomonas aeruginosa, read-out: MIC (average MIC value)
Procedure: The unicellular living organism chosen for the trials is Pseudomonas aeruginosa (wild-type strain originating from hospital sources).
The same methodology as for Examples 11 and 12 was follows. Bacteriostatic analyses were performed with a number of antibiotics belonging to benzylpenicillins, and aminopenicillins, and first and second generation cephalosporins, namely:
The determination of the MIC was carried out by the microdilution method in liquid medium on plates. Aqueous solutions of each antibiotic are prepared in MUELLER HINION broth, to obtain dilutions in a geometric ratio of 2. The solvent is sterile double-distilled water.
The preparation of the bacterial inoculum is made with a culture of Pseudomonas aeruginosa, with agitation on a water bath at 37° C. for 4 to 6 hours, giving 10^6 bacteria/ml.
Three trials were performed per antibiotic and per bacterial inoculum. The trials were performed first with the antibiotics alone (trials a).sctn., and then with the addition of a dose of 1 mg/l of an aqueous solution of lithium fluoride (trials b).sctn. to the dilution of each one in every cup of every plate.

[1] = system: Haemophilus influenzae producing β-lactamase; assay: Antibiotic activity of amoxicillin on hospital strains producing β-lactamase (Example 22); conditions: 4 ppm amoxicillin in the presence of 1 ppm clavulanic acid
[2] = system: Escherichia coli (TEM plasmid); assay: microbe, parasite or virus in culture; type: cell-based
Klebsiella pneumoniae = assay: Antibiotic activity on hospital strains normally resistant to amoxicillin; type: cell-based; conditions: read-out: 100% inhibitory concentration
staphylococcus aeurus = type: cell-based; conditions: Fli 4 ppm
Procedure: Strains Gram+ and Gram- (wild-type hospital) having a resistant phenotype vis a vis standard firstly and secondly used antibiotherapy were experimented on activated antibiotics.
250 experiments were conducted on the following strains: Streptococcus group B, C, D, F, G, Staphylococcus aureus, Staphylococcus epidermitis, Klebsiella pneumoniae, Klebsiella spirochete, Klebsiella oxytoca, Proteus mirabilis, Serratia marcescens, Escherichia coli, Citrobacter freundii, Enterobacter cloacae, Enterobacter calcoaceticus, Salmonella spirochete, Salmonella typhimurium, Pseudomonas aeruginosa, Haemophilus influenzae, Haemophilus sphrophilus, Acinetobacter calcoaeticus. […]

[3] = system: β-Haemolytic streptococcus; assay: Antibiotic activity on hospital strains normally resistant to amoxicillin; type: cell-based; conditions: read-out: 100% inhibitory concentration
Staphylococcus aureus = assay: as above; type: cell-based; conditions: read-out: 100% inhibitory concentration
Haemophilus influenzae = assay: as above; type: cell-based
[4] = read-out: 100% inhibitory concentration, alone

`CO/N=C(\C(=O)N[C@@H]1C(=O)N2C(C(=O)O)=C(COC(C)=O)CS[C@H]12)c1csc(N)n1` [CEFOTAXIME, cefotaxime] gave an IC50 (Serratia; alone, 1123, read-out: 50% inhibitory concentration) of 0.076 µg/mL (≈ 0.167 µM), an IC50 (Serratia; alone, MO1117, read-out: 50% inhibitory concentration) of 0.3 µg/mL (≈ 0.659 µM) and an IC50 (Serratia; in the presence of LiF at 1 mg/l, 1123, read-out: 50% inhibitory concentration) of 0.076 µg/mL. It also gave an IC50 (Serratia; in the presence of LiF at 1 mg/l, MO1117, read-out: 50% inhibitory concentration) of 0.3 µg/mL, an IC50 (Proteus morganii) of 0.01 µg/mL (≈ 0.022 µM) and an IC50 (Escherichia coli; alone, K12 J53, read-out: 50% inhibitory concentration) of 0.023 µg/mL (≈ 0.0505 µM). It also gave an IC50 (Escherichia coli; alone, K12 PIP 55, read-out: 50% inhibitory concentration) of 0.023 µg/mL (≈ 0.0505 µM), an IC50 (Escherichia coli; alone, K12 PIP 111, read-out: 50% inhibitory concentration) of 0.023 µg/mL (≈ 0.0505 µM) and an IC50 (Escherichia coli; alone, SOL, read-out: 50% inhibitory concentration) of 0.18 µg/mL (≈ 0.395 µM). It also gave an IC50 (Escherichia coli; in the presence of LiF at 1 mg/l, K12 J53, read-out: 50% inhibitory concentration) of 0.01 µg/mL, an IC50 (Escherichia coli; in the presence of LiF at 1 mg/l, K12 PIP 55, read-out: 50% inhibitory concentration) of 0.023 µg/mL and an IC50 (Escherichia coli; in the presence of LiF at 1 mg/l, K12 PIP 111, read-out: 50% inhibitory concentration) of 0.023 µg/mL. For the same compound, the IC50 (Klebsiella; alone, 1103, read-out: 50% inhibitory concentration) was 0.023 µg/mL (≈ 0.0505 µM), the IC50 (Klebsiella; alone, U28, read-out: 50% inhibitory concentration) was 0.28 µg/mL (≈ 0.615 µM) and the IC50 (Klebsiella; in the presence of LiF at 1 mg/l, 1103, read-out: 50% inhibitory concentration) was 0.01 µg/mL. For the same compound, the IC50 (Klebsiella; in the presence of LiF at 1 mg/l, U28, read-out: 50% inhibitory concentration) was 0.16 µg/mL, the IC50 (Enterobacter; alone, P49, read-out: 50% inhibitory concentration) was 27.2 µg/mL (≈ 59.7 µM) and the IC50 (Enterobacter; alone, T45, read-out: 50% inhibitory concentration) was 0.05 µg/mL (≈ 0.11 µM). For the same compound, the IC50 (Enterobacter; in the presence of LiF at 1 mg/l, P49, read-out: 50% inhibitory concentration) was 23.2 µg/mL, the IC50 (Enterobacter; in the presence of LiF at 1 mg/l, T45, read-out: 50% inhibitory concentration) was 0.023 µg/mL and the MIC (Pseudomonas aeruginosa; + LiF 1 mg/l, strain lic R βLac^+ OXA) was 16 µg/mL. It also gave an MIC (Pseudomonas aeruginosa; + LiF 1 mg/l, strain lic R βLac^+ PSE) of 16 µg/mL, an MIC (Pseudomonas aeruginosa; + LiF 1 mg/l, strain lic R βLac^+ TEM) of 32 µg/mL and an MIC (Pseudomonas aeruginosa; + LiF 1 mg/l, strain lic R βLac^+ cephalosporinase) of 256 µg/mL. For the same compound, the MIC (Pseudomonas aeruginosa; + LiF 1 mg/l, strain lic S βLac^- (first column)) was 8 µg/mL, the MIC (Pseudomonas aeruginosa; + LiF 1 mg/l, strain lic S βLac^- (second column)) was 16 µg/mL and the MIC (Pseudomonas aeruginosa; alone, strain lic R βLac^+ OXA) was 32 µg/mL. It also gave an MIC (Pseudomonas aeruginosa; alone, strain lic R βLac^+ PSE) of 32 µg/mL, an MIC (Pseudomonas aeruginosa; alone, strain lic R βLac^+ TEM) of 32 µg/mL and an MIC (Pseudomonas aeruginosa; alone, strain lic R βLac^+ cephalosporinase) of 256 µg/mL. For the same compound, the MIC (Pseudomonas aeruginosa; alone, strain lic S βLac^- (first column)) was 16 µg/mL and the MIC (Pseudomonas aeruginosa; alone, strain lic S βLac^- (second column)) was 32 µg/mL.

For `CC1(C)S[C@@H]2[C@H](NC(=O)[C@H](N)c3ccc(O)cc3)C(=O)N2[C@H]1C(=O)O` [amoxicillin], the “time to inhibition of the strains to 100%” value [1] was 24 h, the MIC [2, 4] was greater than 128 µg/mL and the MIC ([2]; read-out: 100% inhibitory concentration, in the presence of LiF 8 ppm) was 32 µg/mL. The MIC (Klebsiella pneumoniae; alone) was 64 µg/mL (≈ 175 µM), the MIC (Klebsiella pneumoniae; in the presence of LiF 8 ppm) was 2 µg/mL and the “phenotype in presence of Fli” value (staphylococcus aeurus) was “the resistant phenotype was not changed”. It also gave an MIC ([3]; alone) of 16 µg/mL (≈ 43.8 µM), an MIC ([3]; in the presence of LiF 8 ppm) of 4 µg/mL and an MIC (Staphylococcus aureus; alone) of 32 µg/mL (≈ 87.6 µM). For the same compound, the MIC (Staphylococcus aureus; in the presence of LiF 8 ppm) was 8 µg/mL, the MIC (Haemophilus influenzae; in the presence of LiF 8 ppm, read-out: 100% inhibitory concentration) was 32 µg/mL and the MIC (Haemophilus influenzae; [4]) was greater than 128 µg/mL.
